Source: US6710049B2, “Azole compounds as anti-fungal agents” (Ranbaxy Laboratories Limited, priority 2000, dated 2004)

Columns and labels:
[1] = test system: C neoformans I; assay: MIC determination (NCCLS broth method); format: cell-based, Cryptococcus neoformans
Source text: (§1) The in-vitro evaluation of the antifungal activity of the compounds can be performed by determining the minimum inhibitory concentration (MIC) as shown in Table 1 which is the concentration of the test compound in Rosewell Park Memorial Institute (RPMI) 1640 liquid medium buffered with 3-(Morpholino)propanesulphonic acid (MOPS) to pH 7, at which there is significant inhibition of the particular fungi. In practice the National Committee for Clinical Laboratory Standard (NCCLS) M27A document for Candida and Cryptococcus and M38P for Aspergillus was used to determine the MIC against yeast and filamentous fungi with suitable modifications for dermatophytes to other filamentous fungi. Three quality control strains were included each time the MIC were determined and readings recorded only when the Quality Control results fell into the acceptable range. After MIC results had been recorded, 100 μl from each of the well showing no growth was spread over Sabouraud Dextrose Agar (SDA) to determine the minimum fungicidal concentration (MFC) as shown in Table 2.

[2] = test system: C neoformans M-106; assay: MIC determination (NCCLS broth method); format: cell-based, Cryptococcus neoformans
Source text: as §1

[3] = test system: Penicilliuim 2306; assay: MIC determination (NCCLS broth method); format: cell-based, Penicillium
Source text: as §1

[4] = test system: P variotii 22319; assay: MIC determination (NCCLS broth method); format: cell-based, Paecillomyces variotii
Source text: as §1

[5] = test system: Penicillium 1641; assay: MIC determination (NCCLS broth method); format: cell-based
Source text: as §1

[6] = test system: Mucor (Ceylon); assay: MIC determination (NCCLS broth method); format: cell-based
Source text: as §1

[7] = test system: Penicillium 3162; assay: MIC determination (NCCLS broth method); format: cell-based
Source text: as §1

[8] = test system: A flavus E4 - 1042; assay: MIC determination (NCCLS broth method); format: cell-based
Source text: as §1

[9] = test system: C tropicalis 750; assay: MIC determination (NCCLS broth method); format: cell-based
Source text: as §1

[10] = test system: Rhizopus (Ceylon); assay: MIC determination (NCCLS broth method); format: cell-based
Source text: as §1

[11] = test system: A flavus E3 - 1044; assay: MIC determination (NCCLS broth method); format: cell-based
Source text: as §1

[12] = test system: Rhizopus 1052; assay: MIC determination (NCCLS broth method); format: cell-based
Source text: as §1

[13] = test system: Penicillium H - 1048; assay: MIC determination (NCCLS broth method); format: cell-based
Source text: as §1

[14] = test system: C krusei 6258; assay: MIC determination (NCCLS broth method); format: cell-based
Source text: as §1

[15] = test system: A flavus P3 - 1041; assay: MIC determination (NCCLS broth method); format: cell-based
Source text: as §1

[16] = test system: H capsulatum; assay: MIC determination (NCCLS broth method); format: cell-based
Source text: as §1

[17] = test system: C glabrata 90030; assay: MIC determination (NCCLS broth method); format: cell-based
Source text: as §1

[18] = test system: C parapsilosis 22019; assay: MIC determination (NCCLS broth method); format: cell-based
Source text: as §1

[19] = test system: Penicillium 2548; assay: MIC determination (NCCLS broth method); format: cell-based
Source text: as §1

[20] = test system: Fusarium 1050; assay: MIC determination (NCCLS broth method); format: cell-based
Source text: as §1

[21] = test system: P variotii 22319; assay: MFC determination (subculture on Sabouraud Dextrose Agar); format: cell-based, Paecillomyces variotii
Source text: as §1

[22] = test system: A fumigatus 1008; assay: as above; format: cell-based, Aspergillus fumigatus
Source text: as §1

[23] = test system: A fumigatus SI-1 - 1019; assay: as above; format: cell-based, Aspergillus fumigatus
Source text: as §1

[24] = test system: A fumigatus L - 1034; assay: MIC determination (NCCLS broth method); format: cell-based, Aspergillus fumigatus
Source text: as §1

[25] = test system: A fumigatus PGI - 1023; assay: MIC determination (NCCLS broth method); format: cell-based, Aspergillus fumigatus
Source text: as §1

[26] = test system: A fumigatus 1008; assay: MIC determination (NCCLS broth method); format: cell-based, Aspergillus fumigatus
Source text: as §1

[27] = test system: A fumigatus J - 1032; assay: MIC determination (NCCLS broth method); format: cell-based, Aspergillus fumigatus
Source text: as §1

[28] = test system: A fumigatus I - 1011; assay: MIC determination (NCCLS broth method); format: cell-based, Aspergillus fumigatus
Source text: as §1

[29] = test system: A fumigatus II - 1012; assay: MIC determination (NCCLS broth method); format: cell-based, Aspergillus fumigatus
Source text: as §1

[30] = test system: A fumigatus K - 1033; assay: MIC determination (NCCLS broth method); format: cell-based, Aspergillus fumigatus
Source text: as §1

[31] = test system: A fumigatus SI-1 - 1019; assay: MIC determination (NCCLS broth method); format: cell-based, Aspergillus fumigatus
Source text: as §1

With `C[C@@H](n1ncn(-c2ccc(N3CCN(c4ccc(Cl)cc4)CC3)cc2)c1=S)[C@](O)(Cn1cncn1)c1ccc(F)cc1F` [Compound No. 1, 2-{[1R,2R]-2-(2,4-Difluorophenyl)-2-hydroxy-1-methyl-3-(1H-1,2,4-triazole-1-yl)propyl}-4-{4-[4-(4-chlorophenyl)-1-piperizinyl]phenyl}-3-(2H,4H)-1,2,4-thiotriazolone] the “Minimum Inhibitory Concentration (MIC)” value [1] was 0.008 µg/mL, the “Minimum Inhibitory Concentration (MIC)” value [2] was 0.008 µg/mL and the “Minimum Inhibitory Concentration (MIC)” value [3] was 0.016 µg/mL. For the same molecule, the “Minimum Inhibitory Concentration (MIC)” value [4] was 0.004 µg/mL, the “Minimum Inhibitory Concentration (MIC)” value [5] was 0.25 µg/mL and the “Minimum Inhibitory Concentration (MIC)” value [6] was 0.004 µg/mL. For the same molecule, the “Minimum Inhibitory Concentration (MIC)” value [7] was 0.03 µg/mL, the “Minimum Inhibitory Concentration (MIC)” value [8] was 0.008 µg/mL and the “Minimum Inhibitory Concentration (MIC)” value [9] was 0.008 µg/mL. The “Minimum Inhibitory Concentration (MIC)” value [10] was 0.125 µg/mL, the “Minimum Inhibitory Concentration (MIC)” value [11] was 0.016 µg/mL and the “Minimum Inhibitory Concentration (MIC)” value [12] was 0.0005 µg/mL. The “Minimum Inhibitory Concentration (MIC)” value [13] was 0.03 µg/mL, the “Minimum Inhibitory Concentration (MIC)” value [14] was 0.06 µg/mL and the “Minimum Inhibitory Concentration (MIC)” value [15] was 0.008 µg/mL. The “Minimum Inhibitory Concentration (MIC)” value [16] was 0.06 µg/mL, the “Minimum Inhibitory Concentration (MIC)” value [17] was 0.06 µg/mL and the “Minimum Inhibitory Concentration (MIC)” value [18] was 0.004 µg/mL. The “Minimum Inhibitory Concentration (MIC)” value [19] was 0.125 µg/mL, the “Minimum Inhibitory Concentration (MIC)” value [20] was 1 µg/mL and the “Minimum Fungicidal Concentration (MFC)” value [21] was 0.06 µg/mL. The “Minimum Fungicidal Concentration (MFC)” value [22] was 0.03 µg/mL, the “Minimum Fungicidal Concentration (MFC)” value [23] was 0.03 µg/mL and the “Minimum Inhibitory Concentration (MIC)” value [24] was 0.008 µg/mL. The “Minimum Inhibitory Concentration (MIC)” value [25] was 0.016 µg/mL, the “Minimum Inhibitory Concentration (MIC)” value [26] was 0.016 µg/mL and the “Minimum Inhibitory Concentration (MIC)” value [27] was 0.008 µg/mL. For the same molecule, the “Minimum Inhibitory Concentration (MIC)” value [28] was 0.016 µg/mL, the “Minimum Inhibitory Concentration (MIC)” value [29] was 0.008 µg/mL and the “Minimum Inhibitory Concentration (MIC)” value [30] was 0.008 µg/mL. For the same molecule, the “Minimum Inhibitory Concentration (MIC)” value [31] was 0.016 µg/mL.
